Reference: patent US20240335547A1, “MODIFIED CHOLIC ACID CONJUGATES” (priority 2022, published 2024)
Converted amounts (≈) assume the structure as drawn. “And” between values parts separate entries of the source, which are not always exact repeats. Identical values can stand only once. Like-named read-outs stand apart in the source and are kept apart here.

Legend:
HCoV-229E = experiment: In vivo viral load in mice lung tissue; parameters: species or system BALB/c mice; details: 2 days and 3 days post-treatment, versus control mice
Experimental: FIG. 6 illustrates the in vivo viral load reduction in mice lung tissue administered Compound 12 compared to control mice that were not administered a compound of the disclosure. In the Group administered Compound 12, a substantial (30-200 fold) reduction of virus replication and production was recorded 2 days and 3 days post-treatment.
(§1) Group C: Infection with 229E, treated with PBS: Thirty five (35) BALB/c 6-weeks old female mice were used for this group. Mice were first anesthetized with isoflurane. Each mouse was intranasally infected with 1×105 plaque forming unit (pfu) of HCoV-229E and then treated with PBS (75 ul) 24 hours later. Mice were sacrificed at 24 hrs post infection, and 24 hrs, 48 hrs, 72 hrs, 6 days, and 7 days post treatment. The lungs from these mice were collected for viral load, immunohistochemistry and cytokines analysis.
(§2) Group D: Infection with 229E, treated with Compound 12: Forty Five (45) BALB/c 6-weeks old female mice were used for this group. Mice were first anesthetized with isoflurane. Each mouse was intranasally infected with 1×10^5 pfu of HCoV-229E and then treated with 0.5 mg of Compound 12 diluted in PBS (75 ul) 24 hours later. Mice from this group were sacrificed at 24 hrs, 48 hrs, 72 hrs, 6 days and 7 days post treatment. The lungs from these mice were collected for viral load, immunohistochemistry and cytokines analysis.

[1] = Histopathological studies (H&E staining, imaging) of lungs of infected and non-infected mice; assay type: in vivo, BALB/c mice
Experimental: Group A: No infection, treated with PBS: Ten (10) BALB/c 6-weeks old female mice were used for this group. Mice were first anesthetized with isoflurane. Each mouse was intranasally treated with one dose of PBS (75 ul). Mice were sacrificed at 72 hrs, and 7 days post treatment. The lungs from these mice were collected for immunohistochemistry and cytokines analysis.
Group B: No infection, treated with Compound 12: Twenty (20) BALB/c 6-weeks old female mice was used for this group. Mice were first anesthetized with isoflurane. Each mouse was intranasally treated with one dose of 0.5 mg of […] diluted in PBS (75 ul). Mice were sacrificed at 24 hrs, 48 hrs, 72 hrs, and 7 days post treatment. The lungs from these mice were collected for immunohistochemistry and cytokines analysis.
as §1, §2

[2] = tested on: Calu-3 cells (ATCC #HTB-55); details: for % Luminescence / Luminescence intensity: 3 repeats
Pseudomonas = experiment: Bactericidal activity MIC/MBC; assay type: cell-based; details: Gram−
[3] = biological target: 3CL Protease (SARS-COV-2) (Severe acute respiratory syndrome coronavirus 2, UniProt P0DTD1); experiment: 3CL Protease (SARS-COV-2) Inhibitor Assay; assay type: biochemical
Experimental: The compound is dissolved in DMSO. A series of dilutions were prepared with 5% DMSO in 3CL Protease assay buffer. 10 μl of the dilution was added to a 50 μl reaction so that the final concentration of DMSO is 1% in all of the reactions. The compound was pre-incubated in duplicate at room temperature for 30 minutes in a mixture containing 3CL Pro assay buffer, 3CL enzyme and a test compound. After 30 minutes, the enzymatic reactions were initiated by the addition of 3CL Protease substrate. The enzymatic reaction proceeded for 4 hours at room temperature. Fluorescence intensity was measured at an excitation of 360 nm and an emission of 460 nm using a Tecan Infinite M1000 microplate reader.

MRSA = experiment: Bactericidal activity MIC/MBC; assay type: cell-based; details: Staphylococcus aureus
[4] = tested on: Golgi apparatus, mitochondria, and endoplasmic reticulum (ER); assay type: cell-based, human
Source text: The effect of compound 12 was studied on cellular structures and organelles such as Golgi apparatus, mitochondria, and endoplasmic reticulum (ER).

[5] = 7 days, pH 7
Source text: Storage stability in buffer was monitored over time of at least 7 days to determine the effect of solution pH and degradation.

Coronavirus 229E = experiment: "Disinfectant" experiments: virus pre-mixed with compound, then added to HFFs; assay type: cell-based; details: Human coronavirus 229E, 0.25 h; mixed with virus 15 minutes at room temperature before adding to HFFs
Experimental: In the “disinfectant” experiments, stock solution of Compound 12 was generated by dissolving the compound in 10% DMSO solution. Different amounts of Compound 12 from the stock solution were mixed with 10^4 PFU of Coronavirus 229E. After incubation at room temperature for 15 minutes, the mixture of virus and Compound 12 was added to the culture of primary human foreskin fibroblasts (HFFs). At 24 hours post-infection, culture medium was changed and the infected HFFs were further cultured in the absence of Compound 12. The level of inhibition of virus infection and production was determined.

TNF-α = TNF-α production in HEK293 Cells; assay type: cell-based; details: 5 μg/ml
Source text: It was confirmed that Compound 12 stimulates TNF-α production in HEK293 Cells.

Candida albicans = experiment: Fungicidal activity MIC/MBC; assay type: cell-based; details: Yeast
in vitro = details: human

For C[C@H](CCC(=O)NCCNC(=O)CCCC[C@@H]1SCC2NC(=O)NC21)C1CCC2C3C(C[C@H](OC(=O)CCN)[C@@]21C)[C@@]1(C)CC[C@@H](OC(=O)CCN)CC1C[C@H]3OC(=O)CCN (stereo partly drawn) [Compound 12], the “reduction of virus replication and production” value (HCoV-229E) was 30-200 fold, the “effect on the morphology of the lung” value ([1]; 3 days post treatment, 0.5 mg intranasally) was “does not cause significant detrimental effects” and the toxicity in vivo ([1]; dosage 0.5 mg/mice) was “does not exhibit significant toxicity in vivo”. The “detection of compound in the lung tissues (staining and imaging)” value ([1]; intranasal, 0.5 mg) was “detected at 1-2 days post treatment but not in 3 days post treatment”, the “% Luminescence” value ([2]; 20 uM) was 102% and 97% and 101% and the Luminescence intensity ([2]; 20 uM) was 27,723 and 26,322 and 27,521. The “% Luminescence” value ([2]; 26.7 uM) was 103% and 97% and 99%, the Luminescence intensity ([2]; 26.7 uM) was 27,962 and 26,310 and 26,857 and the “% Luminescence” value ([2]; 35.6 uM) was 105% and 103% and 104%. The Luminescence intensity ([2]; 35.6 uM) was 28,560 and 28,084 and 28,199, the “% Luminescence” value ([2]; 47.5 uM) was 110% and 105% and 104% and the Luminescence intensity ([2]; 47.5 uM) was 29,946 and 28,451 and 28,177. The “% Luminescence” value ([2]; 63.3 uM) was 111% and 110% and 106%, the Luminescence intensity ([2]; 63.3 uM) was 30,079 and 29,936 and 28,795 and the “% Luminescence” value ([2]; 84.4 uM) was 110% and 109% and 108%. The Luminescence intensity ([2]; 84.4 uM) was 29,975 and 29,736 and 29,345, the “% Luminescence” value ([2]; 112.5 uM) was 108% and 106% and 105% and the Luminescence intensity ([2]; 112.5 uM) was 29,458 and 28,788 and 28,587. For the same molecule, the “% Luminescence” value ([2]; 150 uM) was 107% and 104% and 106%, the Luminescence intensity ([2]; 150 uM) was 29,194 and 28,202 and 28,754 and the “% Luminescence” value ([2]; 200 uM) was 111% and 107% and 106%. The Luminescence intensity ([2]; 200 uM) was 30,150 and 29,181 and 28,872, the CC50 ([2]; human, 3 days) was over 200 µM and the MBC (Pseudomonas) was 1060 µg/mL (≈ 1190 µM). For the same molecule, the MIC (Pseudomonas) was 530 µg/mL (≈ 595 µM), the IC50 [3] was over 10 µM and the “% Activity” value ([3]; 0.0003 μM, 2 repeats) was 101%. It also gave an activity at 0.0003 µM ([3]; 0.0003 μM, 2 repeats) of 99%, an activity at 0.001 µM ([3]; 0.001 μM, 2 repeats) of 103% and an activity at 0.003 µM ([3]; 0.003 μM, 2 repeats) of 103%. For the same molecule, the “% Activity” value ([3]; 0.01 μM, 2 repeats) was 100%, the activity at 0.01 µM ([3]; 0.01 μM, 2 repeats) was 96% and the activity at 0.03 µM ([3]; 0.03 μM, 2 repeats) was 95%. The “% Activity” value ([3]; 0.1 μM, 2 repeats) was 89%, the activity at 0.1 µM ([3]; 0.1 μM, 2 repeats) was 90% and the “% Activity” value ([3]; 0.3 μM, 2 repeats) was 88%. For the same molecule, the activity at 0.3 µM ([3]; 0.3 μM, 2 repeats) was 91%, the “% Activity” value ([3]; 1 μM, 2 repeats) was 89% and the activity at 1 µM ([3]; 1 μM, 2 repeats) was 90%. For the same molecule, the “% Activity” value ([3]; 3 μM, 2 repeats) was 79%, the activity at 3 µM ([3]; 3 μM, 2 repeats) was 82% and the inhibition at 10 µM ([3]; 10 μM) was 24%. The “% Activity” value ([3]; 10 μM, 2 repeats) was 77%, the activity at 10 µM ([3]; 10 μM, 2 repeats) was 75% and the MBC (MRSA) was 1060 µg/mL (≈ 1190 µM). For the same molecule, the MIC (MRSA) was 530 µg/mL (≈ 595 µM), the “effect on overall structure and organization of cellular structures and organelles” value [4] was “did not affect the overall structure and organization” and the “stability, time” value [5] was “up to 7 days”. The “stable with no degradation, time” value [5] was “at least 7 days”, the EC50 (Coronavirus 229E) was 500 µg/mL (≈ 562 µM) and the TNF-α generated (TNF-α) was 7,123 pg/ml. The MBC (Candida albicans) was 66.2 µg/mL (≈ 74.4 µM), the MIC (Candida albicans) was 66.2 µg/mL (≈ 74.4 µM) and the CC50 at 3 days (in vitro) was over 200 µM.
